Measured values as given in patent US20200115698A1, “PHARMACEUTICAL COMBINATION FOR TREATMENT OF FABRY DISEASE AND USE THEREOF” (MEIJI PHARMACEUTICAL UNIVERSITY, priority 2017, published 2020).

Legend:
[1] = target: T1, recombinant α-GAL (Homo sapiens, UniProt P06280); conditions: simultaneous administration to a patient of Fabry disease; cited from earlier work
T1 sequence (P06280 32-429): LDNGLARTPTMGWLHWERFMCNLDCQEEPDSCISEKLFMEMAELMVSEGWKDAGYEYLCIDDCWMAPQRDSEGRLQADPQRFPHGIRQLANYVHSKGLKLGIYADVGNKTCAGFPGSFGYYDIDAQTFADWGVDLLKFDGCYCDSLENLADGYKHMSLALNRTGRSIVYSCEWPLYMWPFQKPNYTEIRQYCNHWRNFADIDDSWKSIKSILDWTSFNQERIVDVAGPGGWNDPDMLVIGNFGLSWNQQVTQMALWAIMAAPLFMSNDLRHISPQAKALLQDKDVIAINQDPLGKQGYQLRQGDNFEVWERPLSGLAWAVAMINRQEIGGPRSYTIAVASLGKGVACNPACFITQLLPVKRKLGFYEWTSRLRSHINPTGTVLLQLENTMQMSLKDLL

[2] = target: T2, α-NAGA mutant (Homo sapiens, UniProt P17050, A191L/S188E); assay: Calculation of inhibition constant Ki (Lineweaver-Burk plot); type: biochemical; conditions: substrate 1-8 mM; DGJ 100-400 nM, GBS 200-800 nM; pH 4.6; FIG. 2
T2 sequence (P17050 with tags, fused parts or gaps S188E/A191L): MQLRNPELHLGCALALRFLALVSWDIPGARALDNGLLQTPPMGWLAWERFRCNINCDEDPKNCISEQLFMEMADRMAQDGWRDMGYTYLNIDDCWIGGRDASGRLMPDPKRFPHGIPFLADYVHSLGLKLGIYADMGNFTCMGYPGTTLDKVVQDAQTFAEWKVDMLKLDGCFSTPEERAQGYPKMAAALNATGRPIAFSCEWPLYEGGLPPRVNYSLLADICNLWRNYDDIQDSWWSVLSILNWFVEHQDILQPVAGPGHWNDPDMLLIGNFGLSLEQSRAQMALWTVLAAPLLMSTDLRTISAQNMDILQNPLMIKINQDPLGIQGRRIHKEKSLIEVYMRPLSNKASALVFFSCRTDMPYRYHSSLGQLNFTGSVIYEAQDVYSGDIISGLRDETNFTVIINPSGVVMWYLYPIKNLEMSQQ
Protocol: Enzymatic analysis was carried out by using, as a reaction liquid, 50 ng of an α-NAGA mutant and 0.1 M phosphate-citrate buffer (pH 4.6) in which a 4-methylumbelliferylα-D-galactopyranoside substrate was dissolved at any of concentrations (1, 2, 4, 6, and 8 mM) (the total amount was 50 μl). In measuring inhibitory activity, reaction was carried out with a reaction liquid which contained DGJ at a concentration of 100, 200, or 400 nM or GBS at a concentration of 200, 400, or 800 nM. After the reaction was carried out at 37° C. for 10 minutes, 950 μl of 0.2 M glycine buffer (pH 10.7) was added to stop the reaction. Then, released 4-methylumbelliferone was measured at an excitation wavelength of 355 nm and at a fluorescence wavelength of 460 nm with use of Wallac 1420 ARVO MX Multilabel Counter. From these values, a Lineweaver-Burk plot was prepared and an inhibition constant Ki was calculated from slopes in the plot which correspond to respective concentrations of the inhibitor.

[3] = target: T2, α-NAGA mutant; assay: Heat stability test carried out by measuring enzyme activity; type: biochemical; conditions: 1 or 10 μM DGJ, FIG. 3
Protocol: 1 μM or 10 μM of DGJ was added to 10 μg/ml of an α-NAGA mutant solution which had been prepared by dissolving an α-NAGA mutant in a 10 mM sodium phosphate buffer (pH 7.5) or a 25 mM sodium acetate buffer (pH 5.2) (the total amount was 100 μl). Then, incubation was carried out at 42° C. for the solution using the 10 mM sodium phosphate buffer (pH 7.5) and at 55° C. for the solution using the 25 mM sodium acetate buffer (pH 5.2). Then, the incubated solution was sampled by 10 μl at points in time which were respectively 0 and 60 minutes after the start of the incubation. Each of the samples thus obtained was immediately added to 40 μl of a 0.1 M phosphate-citrate buffer (pH 4.6) in which a 5 mM substrate was dissolved, and enzyme activity was measured. Remaining activity is indicated based on an assumption that an enzyme activity value after 0 minutes is 100%. FIG. 3 is a view showing a result of heat stability test for confirming inhibitory activity of DGJ with respect to an α-NAGA mutant.

[4] = target: T3, α-NAGA mutant (SEQ ID NO:8) (Homo sapiens, UniProt P17050, A191L/S188E); assay: Screening of inhibitor (1): remaining enzyme activity of α-NAGA mutant with 4-methylumbelliferyl α-D-galactopyranoside; type: biochemical; conditions: 400 μM compound, pH 4.6, 37° C., 30 minutes
T3 sequence (P17050 with tags, fused parts or gaps S188E/A191L): T2 sequence (P17050 with tags, fused parts or gaps S188E/A191L)
Protocol: The screening of inhibitor was carried out as follows: An inhibitor candidate compound dissolved in purified water or DMSO was added to 20 ng of an α-NAGA mutant (SEQ ID NO:8) and 4 mM 4-methylumbelliferylα-D-galactopyranoside dissolved in 0.1 M phosphate-citrate buffer (pH 4.6) such that a concentration of the inhibitor candidate compound became 0.8, 1, or 400 μM, and the mixture thus obtained was caused to react at 37° C. for 30 minutes (the total amount was 50 μl). After the reaction, 950 μl of 0.2 M glycine buffer (pH 10.7) was added to stop the reaction. Then, released 4-methylumbelliferone was measured at an excitation wavelength of 355 nm and at a fluorescence wavelength of 460 nm with use of Wallac 1420 ARVO MX Multilabel Counter. Remaining enzyme activity was calculated based on the assumption that an enzyme activity value obtained in a case where purified water or DMSO is added instead of the inhibitor candidate compound is 100%.

inhibition effect on α-NAGA mutant (remaining enzyme activity) [4]: the inhibition effect was seen
Compound: OCC1NCC(O)C(O)C1O [DGJ, (2R,3S,4R,5S)-2-(hydroxymethyl)piperdine-3,4,5-triol]
stabilization of administered recombinant α-GAL in the blood [1]: recombinant α-GAL was stabilized
inhibition pattern from inhibition constant Ki [2]: inhibitory activity by competitive inhibition
heat stability of the α-NAGA mutant (remaining activity after 60 minutes) ([3]; acidic condition pH 5.2, 55° C., higher improvement than at neutral pH): heat stability of the α-NAGA mutant was improved
heat stability of the α-NAGA mutant (remaining activity after 60 minutes) ([3]; neutral condition pH 7.5, 42° C.): heat stability of the α-NAGA mutant was improved
